# Measurements from patent US20060008574A1, “Galactosyl isomalt, method for production and use thereof” (priority 2002, published 2006).
# Key:
# lactase = test: Stability with respect to lactase; type: in vitro ADME; conditions: 0.9 unit lactase, 1% solution, 37° C., 6 h
# From the text: The enzyme lactase that is present at the mucosa in the small intestine serves in vivo to break down lactose that gets into the small intestine and the resulting monosaccharides are absorbed into the bloodstream through the intestinal wall.
# The enzyme lactase is isolated in a modified method of Wallenfels, K., and Fischer, J. (Z. Physiologische Chemie 321 (1960) 223).
# Solutions 1-5: see Example 8c)
# Solution 6: 1% solution of lactose in solution 1
# Solution 7: 1% solution of isomalt in solution 1
# Solution 8: Lactase in solution 1
# (solutions 2-7), mixed and incubated at 37° C. The reaction is stopped after 6 h by heating to 95° C. for 15 min.
# [1] = tested on: B. pseudocatenulatum DSM 20439; test: Fermentation by human bifidobacteria; type: cell-based; design: key: −: no decomposition; +: decomposition and metabolization of galactose from β-1,3-galactosyl isomalt; ++: decomposition and metabolization of galactose and glucose from β-1,3-galactosyl isomalt; +++: complete decomposition of β-1,3-galcatosyl isomalt; conditions: medium 2, 48 h
# Procedure: (§1) To investigate the prebiotic and bifidogenic properties of galactosyl isomalt, the growth of various human bifidobacteria was investigated on this substrate in vitro. An anaerobic medium of the following composition was used:
# (§2) 22 strains of human bifidobacteria were first precultured in “Hungate” test tubes on the above medium 1, in which the source of carbohydrate had first been replaced by glucose (10 g/L). The strains were then inoculated onto medium 2, incubated for 48 h, and then the optical density (E578), the pH, the formation of acetate and lactate and the decrease of the β-1,3-galactosyl isomalt concentration were determined.
# (§3) Various decomposition paths are distinguished with regard to the metabolization of galactosyl isomalt. Some strains degrade galactose from the substrate with a β-galactosidase and metabolize this monosaccharide (+).
# (§4) Other strains additionally degrade glucose from the resulting isomalt, in addition to galactose, metabolize both monosaccharides, while this is not true for the resulting mannitol or sorbitol (++). The third group is capable of utilizing galactosyl isomalt as a substrate and also metabolizing mannitol and sorbitol (+++).
# B. bifidum DSM 20082 = test: Fermentation by human bifidobacteria; type: cell-based; design: key: −: no decomposition; +: decomposition and metabolization of galactose from β-1,3-galactosyl isomalt; ++: decomposition and metabolization of galactose and glucose from β-1,3-galactosyl isomalt; +++: complete decomposition of β-1,3-galcatosyl isomalt; conditions: medium 2, 48 h
# Procedure: as §1, §2, §3, §4
# [2] = tested on: B. adolescentis DSM 20087; test: Fermentation by human bifidobacteria; type: cell-based; design: key: −: no decomposition; +: decomposition and metabolization of galactose from β-1,3-galactosyl isomalt; ++: decomposition and metabolization of galactose and glucose from β-1,3-galactosyl isomalt; +++: complete decomposition of β-1,3-galcatosyl isomalt; conditions: medium 2, 48 h
# Procedure: as §1, §2, §3, §4
# B. bifidum DSM 20215 = test: Fermentation by human bifidobacteria; type: cell-based; design: key: −: no decomposition; +: decomposition and metabolization of galactose from β-1,3-galactosyl isomalt; ++: decomposition and metabolization of galactose and glucose from β-1,3-galactosyl isomalt; +++: complete decomposition of β-1,3-galcatosyl isomalt; conditions: medium 2, 48 h
# Procedure: as §1, §2, §3, §4
# [3] = Stability in the stomach: hydrolysis rate at pH 2.0; type: physicochemical; conditions: 1% solution, 10 mmol/L hydrochloric acid, pH 2.0, 37° C.
# Procedure: The stability of a substance in the gastric passage can be simulated by determining the hydrolysis rate at pH 2.0. Sucrose and 1-kestose are used as controls.
# In each case a 1% solution of the trisaccharides (DP 3) from Example 4 is incubated with 10 mmol/L hydrochloric acid, pH 2.0 at 37° C. for 3 h. Samples are taken from the reaction mixture after 60, 120 and 180 min and are analyzed by basic anion exchange chromatography, HPAEC.
# [4] = tested on: glucoamylase/maltase (GM complex); test: Stability with respect to small intestine α-glucosidases: glucoamylase/maltase; conditions: 120 min incubation
# Procedure: Solution 1: 0.1 mol/L triethanolamine (TEA) buffer, pH 7.0
# Solution 6: 1% solution of maltose in solution 1
# Solution 7: 1% solution of sucrose in solution 1
# Solution 8: 1% solution of isomalt in solution 1
# Solution 9: 1% solution of isomaltulose in solution 1
# Solution 11: Glucoamylase/maltase enzyme complex in solution 1
# i) 0.7 unit of the enzyme complex saccharase/isomaltase (solution 10) or glucoamylase/maltase (solution 11) was added in each case to 1.0 mL of a carbohydrate solution heated to 37° C. (solution 2 to solution 8), mixed and incubated at 37° C.
# ii) For incubation under more severe conditions, 16 units of the enzyme complex saccharase/isomaltase or 13 units of the enzyme complex glucoamylase/maltase were used. The reaction was stopped after 2 h by heating to 95° C. for 15 min. The resulting monosaccharides and the undegraded saccharides of the relevant batches were quantitatively determined by HPAEC.
# human feces = test: In vitro fermentation in human feces; type: cell-based; conditions: for Degradation rate: 0.5% (w/v) substrate, feces suspension, anaerobic, 37° C.
# Procedure: Incubation of carbohydrates with human feces allows statements to be made about the rate of metabolization by the bacterial population and formation of the short-chain fatty acid butyric acid.
# To invest the fermentability in an in vitro fermentation experiment, Raftilose® P95 (fructooligosaccharides, DP4-5), galactosyl lactose (Oligomate DP 3) and lactosucrose were used for comparison as carbohydrates of similar structure and degree of polymerization, in addition to β-galactosyl isomalts.
# An anaerobic medium of the following composition was used for the in vitro experiments:
# 9 mL of the anaerobic medium 1 described above are mixed with 0.5% (w/v) of the galactosyl isomalts to be tested (prepared according to Examples 1-3) and the corresponding controls lactosucrose and galactosyl lactose and then inoculated with 1 mL of a 10% feces suspension (mixed feces from two subjects) in anaerobic 50 mmol/L phosphate buffer, pH 7.0, to which 0.5 g/L cysteine/HCl was added beforehand as reducing agent.
# The batches are then incubated in “Hungate” test tubes for a maximum of 28 h while shaking at 37° C. Samples are taken at various times and tested for content of residual oligosaccharides, short-chain fatty acids, lactic acid and pH.
# [5] = tested on: pancreatin enzyme (Sigma); test: Stability with respect to pancreatic enzymes; type: in vitro ADME; conditions: 1% solution, 0.2% pancreatin, pH 7.0, 210 min at 37° C.
# Procedure: The pancreatic secretion contains a large number of hydrolases, including carbohydrate-degrading enzymes like α-amylase, which breaks down α-1,4-glucans (starch, glycogen) preferably to maltose and maltooligosaccharides. The test of the stability of saccharides with respect to pancreatic enzymes is carried out as follows.
# 3.0 mL of a carbohydrate solution (solution 2 to solution 6) is mixed with 0.1 mL of the enzyme solution (solution 7) per batch:
# Solution 1: 20 mmol/L Na phosphate buffer, pH 7.0, with 6 mmol/L NaCl
# Solution 2: 1% solution of β-1,4-galactosyl isomalt mixture in accordance with the invention, prepared according to Example 2 and Example 4, in solution 1
# Solution 3: 1% solution of β-1,3-galactosyl isomalt mixture in accordance with the invention, prepared according to Example 1 and Example 4, in solution 1
# Solution 4: 1% solution of β-1,6-galactosyl isomalt mixture in accordance with the invention; prepared according to Example 3 and Example 4, in solution 1
# Solution 6: 1% starch solution (soluble starch, according to Zulkowski), in solution 1
# Solution 7: 0.2% pancreatin enzyme (Sigma), dissolved in solution 1
# After 210 min incubation in a thermomixer (interval shaking) at 37° C., the reaction is stopped by heating to 95° C. for 15 min and the samples are analyzed by HPAEC. The starch-containing sample (solution6+solution 7) is completely hydrolyzed before the HPAEC analysis by heating for 3 h in 1 mol/L hydrochloric acid at 95° C., and the glucose resulting from this is determined in order to calculate the starch content of the sample.
compound,measurement,setting,value
"OCC1O[C@H](OC[C@@H](O)[C@@H](O)[C@H](O)C(O)CO)C(O)C(O[C@@H]2OC(CO)[C@H](O)C(O)C2O)[C@@H]1O (mixture of isomers) [β-1,3-Galactosyl isomalt, β-D-galactosyl-(1→3)-α-D-glucosyl-(1→6)-D-sorbitol(β-1,3-galactosyl-1,6-GPS) and β-D-galactosyl-(1→3)-α-D-glucosyl-(1→1)-D-mannitol(β-1,3-galactosyl-1,1-GPM)]","Hydrolysis rate [%], incubation with lactase",lactase,4.8%
same,"Growth on β-1,3-galactosyl isomalt",[1],++
same,"Growth on β-1,3-galactosyl isomalt",B. bifidum DSM 20082,+
same,"Growth on β-1,3-galactosyl isomalt",[2],+++
same,"Growth on β-1,3-galactosyl isomalt",B. bifidum DSM 20215,+
same,Hydrolysis rate [%],[3]; incubation time 0 min,0%
same,Hydrolysis rate [%],[3]; incubation time 60 min,0%
same,Hydrolysis rate [%],[3]; incubation time 120 min,0%
same,Hydrolysis rate [%],[3]; incubation time 180 min,<1%
same,Hydrolysis rate [%],[4]; More stringent (13 units),0%
same,Hydrolysis rate [%],"[4]; Standard (0.7 unit), 37° C., pH 7.0",0%
same,Butyrate content (end sample),human feces; end of fermentation with human feces,13.3 mmol/L
same,Degradation rate,human feces; incubation time 7 (h),62%
same,Degradation rate,human feces; incubation time 22 (h),93.6%
same,Degradation rate,human feces; incubation time 28 (h),97%
same,Decomposition rate [%],[5],<1%
